Assay results as given in ChEMBL document CHEMBL1138197, “Dopamine/serotonin receptor ligands. 12(1): SAR studies on hexahydro-dibenz[d,g]azecines lead to 4-chloro-7-methyl-5,6,7,8,9,14-hexahydrodibenz[d,g]azecin-3-ol, the first picomolar D5-selective dopamine-receptor antagonist” (J Med Chem, 2006).

Assays:
D(1B) dopamine receptor [1] = target: T1, D(1B) dopamine receptor (Homo sapiens, UniProt P21918); assay: Binding affinity to D5 dopamine receptor by radioligand binding assay
D(2) dopamine receptor [2] = target: T2, D(2) dopamine receptor (Homo sapiens, UniProt P14416); assay: Inhibition of D2L dopamine receptor in HEK 293 cells by intracellular calcium assay; format: functional, cell-based, HEK293
D(3) dopamine receptor = D(3) dopamine receptor (Homo sapiens, UniProt P35462); assay: Binding affinity to D3 dopamine receptor by radioligand binding assay
D(2) dopamine receptor [3] = target: T2, D(2) dopamine receptor; assay: Displacement of [3H]spiperone from D2L dopamine receptor
D(1A) dopamine receptor [4] = target: T3, D(1A) dopamine receptor (Homo sapiens, UniProt P21728); assay: Inhibition of D1 dopamine receptor in HEK 293 cells by intracellular calcium assay; format: functional, cell-based, HEK293
D(1A) dopamine receptor [5] = target: T3, D(1A) dopamine receptor; assay: Displacement of [3H]SCH 23390 from D1 dopamine receptor
D(1B) dopamine receptor [6] = target: T1, D(1B) dopamine receptor; assay: Inhibition of D5 dopamine receptor in HEK 293 cells by intracellular calcium assay; format: functional, cell-based, HEK293
D(4) dopamine receptor = target: T4, D(4) dopamine receptor (Homo sapiens, UniProt P21917); assay: Binding affinity to D4 dopamine receptor by radioligand binding assay
T4 sequence (P21917 whole entry): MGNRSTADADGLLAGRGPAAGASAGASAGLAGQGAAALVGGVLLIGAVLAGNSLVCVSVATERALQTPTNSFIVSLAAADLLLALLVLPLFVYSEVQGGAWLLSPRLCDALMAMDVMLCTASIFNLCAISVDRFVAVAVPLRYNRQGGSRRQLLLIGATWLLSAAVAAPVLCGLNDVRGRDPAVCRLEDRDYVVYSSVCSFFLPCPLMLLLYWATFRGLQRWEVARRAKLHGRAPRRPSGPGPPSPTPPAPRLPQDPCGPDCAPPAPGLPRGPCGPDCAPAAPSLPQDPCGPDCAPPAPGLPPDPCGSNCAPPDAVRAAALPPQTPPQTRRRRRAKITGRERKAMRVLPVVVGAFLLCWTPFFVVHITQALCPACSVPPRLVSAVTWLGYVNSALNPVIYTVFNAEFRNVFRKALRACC

T3 sequence (P21728 whole entry): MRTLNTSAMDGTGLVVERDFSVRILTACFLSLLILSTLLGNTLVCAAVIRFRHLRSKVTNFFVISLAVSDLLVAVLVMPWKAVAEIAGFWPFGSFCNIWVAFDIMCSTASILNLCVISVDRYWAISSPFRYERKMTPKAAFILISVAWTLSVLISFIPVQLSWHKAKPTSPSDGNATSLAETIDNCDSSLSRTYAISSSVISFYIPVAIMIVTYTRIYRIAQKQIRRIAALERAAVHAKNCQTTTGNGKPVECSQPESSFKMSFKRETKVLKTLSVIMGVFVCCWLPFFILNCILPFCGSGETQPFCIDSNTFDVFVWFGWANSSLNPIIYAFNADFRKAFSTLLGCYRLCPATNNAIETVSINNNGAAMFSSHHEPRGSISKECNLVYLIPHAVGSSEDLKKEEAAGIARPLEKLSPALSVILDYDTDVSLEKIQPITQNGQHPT
T1 sequence (P21918 whole entry): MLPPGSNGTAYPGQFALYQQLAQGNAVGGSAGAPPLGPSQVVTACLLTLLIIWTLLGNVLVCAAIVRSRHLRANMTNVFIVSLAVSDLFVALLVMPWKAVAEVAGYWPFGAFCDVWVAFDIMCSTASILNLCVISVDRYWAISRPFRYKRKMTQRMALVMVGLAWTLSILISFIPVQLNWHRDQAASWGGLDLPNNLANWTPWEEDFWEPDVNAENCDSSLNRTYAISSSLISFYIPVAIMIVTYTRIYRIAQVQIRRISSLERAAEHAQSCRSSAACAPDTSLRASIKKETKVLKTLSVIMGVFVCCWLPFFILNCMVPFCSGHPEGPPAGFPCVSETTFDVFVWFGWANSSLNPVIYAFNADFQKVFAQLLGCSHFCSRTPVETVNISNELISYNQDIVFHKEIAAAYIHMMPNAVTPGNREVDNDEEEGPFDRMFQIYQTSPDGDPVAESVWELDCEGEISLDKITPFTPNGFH
T2 sequence (P14416 whole entry): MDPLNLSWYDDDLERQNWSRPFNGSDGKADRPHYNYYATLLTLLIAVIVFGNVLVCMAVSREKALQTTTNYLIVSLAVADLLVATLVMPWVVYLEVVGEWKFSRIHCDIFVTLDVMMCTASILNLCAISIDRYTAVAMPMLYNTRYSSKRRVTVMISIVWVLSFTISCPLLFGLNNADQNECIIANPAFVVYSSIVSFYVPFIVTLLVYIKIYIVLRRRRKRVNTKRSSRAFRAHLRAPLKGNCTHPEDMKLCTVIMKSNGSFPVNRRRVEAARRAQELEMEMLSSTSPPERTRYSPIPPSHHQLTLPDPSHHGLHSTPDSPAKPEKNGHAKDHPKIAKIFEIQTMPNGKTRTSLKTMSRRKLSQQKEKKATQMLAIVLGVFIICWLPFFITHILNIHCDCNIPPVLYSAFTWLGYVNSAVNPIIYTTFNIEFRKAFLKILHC
D(3) dopamine receptor, sequence (P35462 whole entry): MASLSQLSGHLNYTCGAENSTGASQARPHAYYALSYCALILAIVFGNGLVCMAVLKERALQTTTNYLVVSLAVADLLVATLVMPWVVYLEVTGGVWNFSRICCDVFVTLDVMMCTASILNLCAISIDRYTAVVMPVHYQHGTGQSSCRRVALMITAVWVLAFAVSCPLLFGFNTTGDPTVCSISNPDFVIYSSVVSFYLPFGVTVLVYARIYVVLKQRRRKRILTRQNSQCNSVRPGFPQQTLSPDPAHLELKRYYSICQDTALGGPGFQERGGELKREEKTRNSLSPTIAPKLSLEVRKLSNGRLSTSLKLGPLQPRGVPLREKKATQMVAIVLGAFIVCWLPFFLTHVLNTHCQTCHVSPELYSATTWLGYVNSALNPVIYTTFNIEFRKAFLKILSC

Row | Structure (SMILES) | Ki (D(1B) dopamine receptor [1]) [nM] | Ki (D(2) dopamine receptor [2]) [nM] | Ki (D(3) dopamine receptor) [nM] | Ki (D(2) dopamine receptor [3]) [nM] | Ki (D(1A) dopamine receptor [4]) [nM] | Ki (D(1A) dopamine receptor [5]) [nM] | Ki (D(1B) dopamine receptor [6]) [nM] | Ki (D(4) dopamine receptor) [nM]
1 | CN1CCc2ccccc2Cc2cc(O)c(Cl)cc2CC1 | 4.9 | 4.8 | 27.7 | 2 | 10.8 | 3.1 | 3.1 | 
2 | CN1CCc2ccccc2Cc2ccc(O)c(Cl)c2CC1 | 0.057 | 6.1 | 24.6 | 4 | 0.46 | 0.83 | 0.053 | 5.2
3 | CN1CCc2ccccc2Cc2c(O)cccc2CC1 |  | 7.9 | 215 | 84 | 64.1 | 8.7 | 10.4 | 
4 | COc1c(Cl)cc2c(c1Cl)Cc1ccccc1CCN(C)CC2 |  | 2.5 | 415 | 210 | 34 | 25.3 | 59 | 
5 | COc1ccc2c(c1)CCN(C)CCc1cc(OC)ccc1C2 | 12.6 | 0.62 | 102 | 6.5 | 26.9 | 9.4 | 11.5 | 
6 | CN1CCc2ccccc2Cc2cc(N)c(O)cc2CC1 | 226 | 26.1 |  | 37.3 | 20.9 | 9.3 | 39.5 | 
7 | COc1cccc2c1Cc1ccccc1CCN(C)CC2 |  | 39.9 | 1830 | 164 | 37.6 | 7.6 | 54.6 | 
8 | COc1ccc2c(c1)CCN(C)CCc1ccccc1C2 |  | 0.55 | 75.7 | 13 | 24.1 | 28.5 | 7.2 | 
9 | CN1CCc2ccccc2Cc2c(ccc(O)c2Cl)CC1 | 0.98 | 0.13 | 1.88 | 0.99 | 6.8 | 0.46 | 1.6 | 
10 | CN1CCc2cc(O)ccc2Cc2ccc(O)cc2CC1 | 1.68 | 19 | 342 | 58.7 | 3.3 | 2 | 0.54 | 
11 | COc1ccc2c(c1)Cc1ccccc1CCN(C)CC2 |  | 21.1 | 151 | 62 | 567 | 82 | 1050 | 
12 | CN1CCc2ccccc2Cc2cc(O)ccc2CC1 | 42.3 | 19 | 296 | 36.9 | 2.6 | 8.9 | 37.5 | 
13 | CN1CCc2ccccc2Cc2cc(Cl)c(O)c(Cl)c2CC1 |  | 37.5 |  | 88 | 3.8 | 3.2 | 1.2 | 
14 | CN1CCc2ccccc2Cc2[nH]c3ccccc3c2CC1 | 7.5 | 19 |  | 44.7 |  | 1.9 | 12.7 | 
